# Source: patent US6569640B1, “Method of fractionation of biologically-derived materials using critical fluids” (Aphios Corporation, priority 1993, dated 2003)
# System: Bacillus subtilis
# Test: Antimicrobial disk diffusion assay
# Format: cell-based
# Settings: disks containing 10 μg
# Description: Microbial extracts were tested for antimicrobial activity by a disk diffusion assay. Diffusion of the metabolites into the agar creates a zone of growth inhibition around the disk if the organism is susceptible to the antimicrobial metabolite. Ten to 20 μl amounts of extract or extract fractions were applied to Whatman 3MM filter paper disks 7 mm in diameter. The disks were dried under vacuum overnight to evaporate the solvent. Bioassays were carried out with the target organism Bacillus subtilis. The target organisms were grown in nutrient broth (Difco), and adjusted to an A600 of 0.1. One hundred μl of the cell suspension was applied to the surface of a nutrient agar plate and spread uniformly with a sterile spreader. After the liquid had absorbed into the agar, the disks were placed on the surface, about 1 cm apart. The plates were incubated at 25-30° C. for 24-36 hours. Antimicrobial activity was indicated by a zone of inhibition around a disk where bacterial growth was prevented. […] In addition, positive and negative control disks were utilized. For the negative control, a disk which received only methanol was run in each test. […] For the positive control, disks containing the antimicrobial gentamycin (10 μg) were used.
substance,measurement,value
gentamycin,"zone of inhibition, positive control disk",showed zones of inhibition
